Measurements from paper PMC10369496, “Cu(II) and Zn(II) Complexes of New 8-Hydroxyquinoline Schiff Bases: Investigating Their Structure, Solution Speciation, and Anticancer Potential” (Inorganic Chemistry, 2023).
Entries after “also recorded” stand apart in the source; their conditions may differ. Read-outs that look alike come from different tables or passages of the source.

Columns and labels:
melanoma cell line A375 = tested on: melanoma cell line A375; parameters: method as in doi:10.1016/j.phytol.2021.07.008; conditions: A375, MTT method; cited from earlier work
[1] = Overall stability (formation) constants of Cu(II) complexes by UV–vis spectrophotometric titrations; type: physicochemical; conditions: I = 0.1 M KCl, t = 25.0 °C; for log β (CuL2): bis-ligand Cu(II) complex; for log β (CuL): mono-ligand Cu(II) complex
Method: (§1) The UV–vis titrations were performed with a 0.10 M carbonate-free KOH solution using a Metrohm 665 Dosimat buret and an Orion 710A pH-meter equipped with a Metrohm combined electrode (type 6.0234.100). […] The average water ionization constant (pKw) is 13.76 ± 0.05. The path length was 1 cm, and the temperature was 25.0 ± 0.1 °C. An ionic strength of 0.10 M KCl was used to keep the activity coefficients constant. The samples were deoxygenated by bubbling argon through the system for 10 min. Spectrophotometric titrations were carried out using an Agilent Cary 8454 diode array spectrophotometer (Santa Clara, CA) in water on samples containing the ligands at 60 μM, in the pH range from 1.5 to 11.5 in the absence or in the presence of 1, 0.5, or 0.25 equiv of Cu(II) and Zn(II) ions, using 10.00 mL of sample volumes. Proton dissociation constants (Ka) of the ligand precursors, as well as stoichiometry and overall stability constants (β) of the metal complexes, were calculated by the computer program PSEQUAD.[20]

[2] = Distribution coefficient, shake-flask n-octanol/buffered aqueous solution pH 7.40; type: physicochemical; conditions: n-octanol/water partitioning, pH 7.40, 25 °C; for logD at 3 h: n-octanol/buffered aqueous solution, pH 7.4, read-out: log D7.4
Method: The distribution coefficients (D7.4) of the compounds were determined by the shake-flask method in n-octanol/buffered aqueous solution at pH 7.40 (25.0 ± 0.2 °C). The ligand precursors and the complexes were dissolved in 10 mM HEPES presaturated with n-octanol. The aqueous solution and n-octanol (1:1 ratio) were gently mixed with a 360° vertical rotation (∼20 rpm) for 3 h; then, the samples were centrifuged at 3000 rpm for 5 min. Two phases were separated, and their UV–vis spectra were recorded. The D7.4 value was calculated as follows [drawing 1] 1

[3] = Proton dissociation constants by UV–vis spectrophotometric titrations; type: physicochemical; conditions: water with 0.10 M KCl, I = 0.1 M KCl, t = 25.0 °C
Method: as §1

[4] = tested on: human keratinocytes HaCaT; assay: MTT assay in nontumorigenic HaCaT cells; type: cell-based; conditions: for IC50: HaCaT, 48 h incubation, MTT colorimetric method; for Selectivity index (SI): IC50 HaCaT/IC50 A375
Method: (§2) Cell culture media and antibiotics were obtained from Gibco (Thermo Fisher Scientific). Human malignant melanoma A375 cells (ATCC CRL-1619TM) and human keratinocytes HaCaT (CLS 300493) were cultured in DMEM-Glutamax supplemented with 10% fetal bovine serum (FBS), hereafter designated as complete medium. For human keratinocytes, 100 IU/mL of penicillin and 100 μg/mL of streptomycin (Gibco, Thermo Fisher Scientific) were also used. The cell lines were kept at 37 °C with a 5% CO2 atmosphere. The maintenance of cell cultures was performed every 2–3 days until the cells reached a confluency of about 80%.
The MTT assay was used to assess cell viability in the presence of increasing concentrations of selected compounds. Briefly, HaCaT cells were plated at a concentration of 5 × 10^4 cells/mL in 96-well plates (200 μL/well) and cultured for 24 h in the culture conditions described above. Then, cells were incubated with free ligands and metal complexes at concentrations ranging from 5 to 30 μM. Negative controls were cells maintained in complete culture medium. The culture medium was discarded after 48 h, cells were washed with PBS (2 times), and then 50 μL of MTT at 0.5 mg/mL in incomplete medium was added to all wells. After 2–3 h of incubation period at 37 °C, 100 μL of DMSO was added to each well to solubilize the formazan crystals, and absorbance was measured at 570 nm using a microplate reader Model 680 (Bio-Rad, CA). Two independent experiments were carried out, with six replicates per condition.
(§3) GraphPad Prism8 (GraphPad Software, San Diego, CA) was used to analyze cell proliferation, and values were plotted and fit a standard log dose–response curve to generate IC50 values.

[5] = tested on: Human malignant melanoma A375 cells; assay: Antiproliferative activity in A375 cells, CellTiter-Glo 3D luminescent method; type: cell-based
Method: as §2
The CellTiter-Glo 3D kit (Promega) was used to assess the viability of the A375 cells in the presence or absence (negative control) of increasing concentrations of the free ligands and complexes. The kit detects adenosine triphosphate, which is proportional to the number of viable cells, therefore allowing the assessment of cell proliferation. First, A375 cells were plated at a concentration of 5 × 10^4 cells/mL in 96-well plates (200 μL/well) and cultured for 24 h in the culture conditions described above. Then, cells were incubated with the free ligands (1–100 μM), Zn(II) complexes (1 to 80 μM), and Cu(II) complexes (1–20 μM) in 96-well plates. After an incubation period of 48 h, 100 μL of each well was discarded. Then, 40 μL of CellTiter-Glo 3D reagent was added into each well and the contents were mixed vigorously for 15 min to induce cell lysis at room temperature. Finally, the luminescence was measured using a Varioskan Lux multimode plate reader (Thermo Scientific). Values presented are mean ± standard deviation (SD) of two independent biological experiments with 4 technical replicates per condition.
as §3

[6] = Overall stability (formation) constants of Zn(II) complexes by UV–vis spectrophotometric titrations; type: physicochemical; conditions: I = 0.1 M KCl, t = 25.0 °C; for log β (ZnL2): bis-ligand Zn(II) complex; for log β (ZnL): mono-ligand Zn(II) complex
Method: as §1

[7] = Stability in aqueous HEPES buffer (5% DMSO) by UV–vis; type: physicochemical; conditions: HEPES 10 mM pH 7.4 with 5% (v/v) DMSO; 100–135 μM; 24 h
Method: Stock solutions of each complex were freshly prepared in DMSO and diluted with HEPES buffer (10 mM, pH 7.4), ensuring that the organic solvent content was less than 5% (v/v). The samples were monitored by UV–vis absorption spectrophotometry for 6 consecutive hours, and a final measurement was done after 24 h.

[8] = Thermodynamic solubility in water at pH 7.40; type: physicochemical; conditions: pH 7.40, 10 mM HEPES, 37 °C, 24 h incubation
Method: Thermodynamic solubility (S) of the free ligands and complexes was determined for the saturated solutions in water at pH 7.40 in 10 mM HEPES at 37.0 ± 0.2 °C. The concentration of the compounds was determined by UV–vis spectrophotometry using stock solutions with known concentrations dissolved in 100% DMSO, 50%, and 25% (v/v) DMSO/buffered aqueous solutions for the calibration.

[9] = molecular target: T1, bovine serum albumin (BSA) (Bos taurus, UniProt P02769); assay: Fluorescence quenching titration of BSA; type: binding
T1 construct: bovine serum albumin (BSA) stock solutions of lyophilized protein
Method: The steady-state fluorescence emission spectra of a solution of 0.5–1.0 μM BSA (in HEPES buffer) were recorded between 310 and 500 nm with λexc = 295 nm after additions of the complexes’ solutions directly to the cuvette (optical path of 1.0 cm). The UV–vis spectrum of each sample was used to make corrections and minimize the inner filter and reabsorption interferences.[22] Solutions with the same concentration of complex and no BSA were recorded and used as blank spectra.
Data were analyzed by fitting a second-order equation, which accounts for both static and dynamic quenching [drawing 2] 2 where I0 and I are the fluorescence intensities in the absence and presence of quencher (Q), and KS and KD are the static and dynamic quenching constants, respectively.
The Stern–Volmer equation was used for low quencher concentrations to determine the Stern–Volmer quenching constant (KSV), a measure of the quenching strength [drawing 3] 3

A375 cells = assay: Guava ViaCount assay by flow cytometry; type: cell-based, human; conditions: A375, 48 h; Zn(L2)2 at 15 μM, Cu2(L2)4 at 12 μM
Method: For the Guava ViaCount assay, A375 cells were plated at a concentration of 8 × 10^4 cells/mL in 24-well plates (1 mL/well) and cultured for 24 h in the culture conditions described above.[23] Cells were then incubated with Zn(L2)2 and Cu2(L2)4 at concentrations of 15 and 12 μM, respectively. The positive control, dacarbazine (DTIC), was tested at 70 μM. Cells in the presence of complete culture medium constituted the negative control group. After an incubation period of 48 h, cell culture supernatants were collected, and adherent cells were detached using TrypLEExpress (Invitrogen). Detached cells were then added to supernatants, and the wells were washed using PBS with 2% FBS to recover any remaining cells. The recovered suspension was centrifuged for 5 min at 700 g. The supernatants were discarded, and cells were suspended in PBS with 2% FBS. Then, on a 96-well plate, 20 μL of cell suspension was incubated with 180 μL of Guava ViaCount reagent (Merck Millipore, Darmstadt, Germany) for 5 min at r.t. Using a Guava EasyCyte 5HT Flow cytometer (Guava Technologies, Inc., Hayward, CA), data were collected and analyzed with the ViaCount software module with an acquisition of 10,000 events per sample. GraphPad Prism8 was used to analyze cell proliferation (GraphPad Software, San Diego, CA). One experiment was carried out, with three replicates per condition.

[10] = Stability by 1H NMR in DMSO-d6 or 30% DMSO-d6/H2O; type: physicochemical; conditions: 1 mM
Method: A Bruker Avance III HD Ascend 500 Plus instrument (Billerica, MA) was used for NMR spectroscopic titrations and time-dependent studies applying a WATERGATE water suppression pulse scheme in the presence of 10% (v/v) D2O/H2O, and the sodium trimethylsilylpropanesulfonate (DSS) standard was added to samples as the internal reference. ^1H NMR titrations were carried out for the ligand precursors in the presence of 0.1 M KCl. For free ligands and complexes’ stability measurements, ^1H NMR spectra were recorded in DMSO-d6 or 30% (v/v) DMSO-d6/H2O.

[11] = quinolinium nitrogen, read-out: pKa (NqH+)
[12] = Homo sapiens, A-375, A375, 48 h incubation

T1 sequence (P02769 25-607): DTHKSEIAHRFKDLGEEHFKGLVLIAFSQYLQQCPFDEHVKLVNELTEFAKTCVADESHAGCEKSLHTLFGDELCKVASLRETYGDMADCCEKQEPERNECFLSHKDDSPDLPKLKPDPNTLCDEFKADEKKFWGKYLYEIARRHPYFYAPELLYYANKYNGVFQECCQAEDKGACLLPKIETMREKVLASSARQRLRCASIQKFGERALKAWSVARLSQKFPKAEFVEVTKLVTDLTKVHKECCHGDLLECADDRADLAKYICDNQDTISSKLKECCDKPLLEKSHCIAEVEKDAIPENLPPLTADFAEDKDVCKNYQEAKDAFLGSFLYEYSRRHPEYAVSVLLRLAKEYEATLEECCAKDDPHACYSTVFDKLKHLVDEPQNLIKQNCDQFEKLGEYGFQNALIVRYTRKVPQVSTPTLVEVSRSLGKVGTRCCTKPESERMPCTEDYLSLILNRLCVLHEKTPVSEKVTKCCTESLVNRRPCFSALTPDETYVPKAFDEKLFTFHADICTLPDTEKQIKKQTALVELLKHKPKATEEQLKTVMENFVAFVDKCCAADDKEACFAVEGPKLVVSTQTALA

Row | Structure (SMILES) | log β (CuL2) [1] | log β (CuL) [1] | logD at 3 h [2] | pKa ([3]; phenol OH, read-out: pKa (OH)) | pKa [3, 11] | IC50 ([4]; Homo sapiens) [µM] | IC50 [5, 12] [µM] | log β (ZnL2) [6] | log β (ZnL) [6] | stability in aqueous media [7] | Thermodynamic solubility S7.4 [8] [µM] | log D7.4 [2] | IC50 [4] [µM] | Selectivity index (SI) [4] | IC50 ([5]; A375, 48 h incubation) [µM] | other results
1 | N.N.[Cl][Pt][Cl] [Cisplatin] |  |  |  |  |  |  |  |  |  |  |  |  |  |  |  | IC50 (melanoma cell line A375): 10.9 ± 1.3 µM
2 | Oc1cccc2ccc(/C=N/CCN3CCCCC3)nc12 [L1] | 15.60 ± 0.02 | 8.36 ± 0.01 | 0.63 | 8.77 ± 0.03 | 2.8 ± 0.03 | > 30 | 15.2 ± 0.2 | 14.42 ± 0.01 | 6.90 ± 0.03 |  |  |  |  |  |  | 
3 | [O-]c1cccc2ccc(/C=N/CCCN3CCOCC3)nc12.[O-]c1cccc2ccc(/C=N/CCCN3CCOCC3)nc12.[Zn+2] [Zn(L3)2] |  |  |  |  |  |  |  |  |  | suggests hydrolysis; also recorded: significant hydrolysis | 87 | >1.5 | 26.3 ± 0.7 | 2.8 | 9.3 ± 1.1 | 
4 | [Cu+2].[O-]c1cccc2ccc(/C=N/CCCN3CCOCC3)nc12.[O-]c1cccc2ccc(/C=N/CCCN3CCOCC3)nc12 [Cu(L3)2] |  |  |  |  |  |  |  |  |  |  | 1821 | >1.5 | 8.1 ± 0.2 | 1.2 | 6.7 ± 0.2 | Stern–Volmer quenching constant KSV ([9]; fit at low quencher concentrations, HEPES pH 7.4): (2.20 ± 0.07) × 10^5 M^–1; % quenching ([9]; molar ratio complex:BSA = 10, λexc = 295 nm): 48%
5 | [O-]c1cccc2ccc(/C=N/CCN3CCOCC3)nc12.[O-]c1cccc2ccc(/C=N/CCN3CCOCC3)nc12.[Zn+2] [Zn(L2)2] |  |  |  |  |  |  |  |  |  | did not show signs of decomposition | 1674 | +0.86 ± 0.09 | 24.4 ± 0.6 | 2.4 | 10.3 ± 1.6 | percentage of dead and apoptotic cells (A375 cells): 10%
6 | Oc1cccc2ccc(/C=N/CCN3CCOCC3)nc12 [L2] | 15.77 ± 0.03 | 7.98 ± 0.02 | 0.64 | 8.84 ± 0.03 | 2.83 ± 0.03 | > 30 | 15.9 ± 0.1 | 14.32 ± 0.02 | 6.86 ± 0.04 |  |  |  |  |  |  | 
7 | Oc1cccc2ccc(/C=N/CCCN3CCOCC3)nc12 [L3] | 15.57 ± 0.01 | 8.34 ± 0.01 | 0.76 | 8.78 ± 0.03 | 2.77 ± 0.03 | > 30 | 25.8 ± 0.3 | 13.68 ± 0.04 | 6.87 ± 0.01 |  |  |  |  |  |  | 
8 | [O-]c1cccc2ccc(/C=N/CCN3CCCCC3)nc12.[O-]c1cccc2ccc(/C=N/CCN3CCCCC3)nc12.[Zn+2] [Zn(L1)2] |  |  |  |  |  |  |  |  |  | did not show signs of decomposition | 694 | >1.5 | 22.3 ± 0.7 | 2.5 | 9.1 ± 1.5 | period the 1H NMR spectra remained unchanged [10]: 8 days
